biological target: T1, TRPM8 (Homo sapiens, UniProt Q7Z2W7); assay: Ca2+ fluorimetry assay in CHO cell line stably expressing TRPM8; format: cell-based; details: 10 μM; CHO cells stably expressing TRPM8; Fluo-4NW fluorescence
T1 construct: expressed in transfected cells
Experimental: The cells were cultured in monolayer in EMEM medium (Earle's minimum essential medium with Earle's salts, Invitrogen) supplemented with 10% foetal bovine serum (FBS), 2 mM L-glutamine, 1% penicillin-streptomycin solution and […] of the Geneticin antibiotic (Sigma) and kept at 37° C. in a humidified atmosphere with 5% of CO2. Ca^2+ fluorimetry assays were carried out in order to determine the efficacy of the compounds on the TRPM8 channels. The cells were seeded in 96-well plates with a density of 25,000 cells per well. Three days after seeding, the medium was removed and 100 μl of the Fluo-4NW fluorescent probe from Invitrogen was added with a concentration of 5 μM in the presence of 0.02% pluronic acid; after 60 minutes of incubation at 37° C. in a humidified atmosphere with 5% of CO2, the fluorescence was measured in a microplate reader (POLARstar Omega) with a configuration of 485 nm for the excitation and 520 nm for the emission, during 20 cycles. […] In the wells that were used as negative controls, 1 μl of AMTB [N-(3-aminopropyl)-2-[(3-methylphenyl)methoxy]-N-(2-thienylmethyl)benzamide] was added to obtain a final concentration of 10 μM, to block the TRPM8 channels.
The amplitudes of the Ca^2+ increases, caused by the stimulation of the cells with the compounds, were measured by subtracting the basal fluorescence signal (mean intensity obtained before adding the compound) from the fluorescence peak obtained after applying the compounds. The obtained results were adjusted to a sigmoid function using the software suite of the GraphPad Prism computer program.

T1 sequence (Q7Z2W7 whole entry): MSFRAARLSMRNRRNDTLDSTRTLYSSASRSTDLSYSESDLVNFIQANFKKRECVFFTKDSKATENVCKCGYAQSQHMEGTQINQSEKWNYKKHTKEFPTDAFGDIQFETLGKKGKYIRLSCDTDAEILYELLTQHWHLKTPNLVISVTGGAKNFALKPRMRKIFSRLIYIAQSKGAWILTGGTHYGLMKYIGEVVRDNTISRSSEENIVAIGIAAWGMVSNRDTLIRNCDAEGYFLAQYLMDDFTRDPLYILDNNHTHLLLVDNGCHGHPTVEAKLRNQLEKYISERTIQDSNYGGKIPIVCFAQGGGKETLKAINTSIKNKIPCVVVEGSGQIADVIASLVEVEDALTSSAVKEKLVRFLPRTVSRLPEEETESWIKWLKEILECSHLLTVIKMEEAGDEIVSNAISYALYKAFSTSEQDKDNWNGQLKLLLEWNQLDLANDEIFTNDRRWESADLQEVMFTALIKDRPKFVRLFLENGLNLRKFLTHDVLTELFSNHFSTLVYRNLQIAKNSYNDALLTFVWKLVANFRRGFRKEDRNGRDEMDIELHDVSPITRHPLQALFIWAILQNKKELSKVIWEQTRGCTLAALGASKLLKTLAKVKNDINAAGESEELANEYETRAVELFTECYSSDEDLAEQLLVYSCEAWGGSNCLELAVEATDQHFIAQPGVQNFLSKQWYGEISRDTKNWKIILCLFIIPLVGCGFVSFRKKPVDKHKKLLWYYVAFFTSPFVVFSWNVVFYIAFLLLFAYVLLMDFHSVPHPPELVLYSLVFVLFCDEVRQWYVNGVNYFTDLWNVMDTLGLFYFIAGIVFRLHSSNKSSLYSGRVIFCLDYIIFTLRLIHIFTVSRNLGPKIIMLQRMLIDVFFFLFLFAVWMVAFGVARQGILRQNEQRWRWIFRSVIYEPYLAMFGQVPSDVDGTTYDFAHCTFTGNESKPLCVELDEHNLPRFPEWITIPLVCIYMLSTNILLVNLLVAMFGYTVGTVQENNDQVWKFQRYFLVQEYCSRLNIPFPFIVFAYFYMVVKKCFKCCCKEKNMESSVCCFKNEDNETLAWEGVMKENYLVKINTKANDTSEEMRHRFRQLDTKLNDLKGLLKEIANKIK

| SMILES | activation at 10 µM |
| --- | --- |
| CC1CCC(C(C)C)C(O)C1 (stereo not shown) [Menthol, reference compound] | 101 ± 1.66% |
| COc1ccc(C(=O)c2cn([C@@H]3C[C@H](C)CC[C@H]3C(C)C)nn2)cc1 [TZM-18, (1-((1R,2S,5R)-2-isopropyl-5-methylcyclohexyl)-1H-1,2,3-triazole-4-yl) (4-methoxyphenyl)methanone] | 44.6 ± 5.62% |
| COCc1cn([C@@H]2C[C@H](C)CC[C@H]2C(C)C)nn1 [TZM-25, 1-((1R,2S,5R)-2-isopropyl-5-methylcyclohexyl)-4-(methoxymethyl)-1H-1,2,3-triazole] | 45.1 ± 18.6% |
| CC(C)[C@@H]1CC[C@@H](C)C[C@H]1n1cc(CCc2ccccc2)nn1 [TZM-10, 1-((1R,2S,5R)-2-isopropyl-5-methylcyclohexyl)-4-phenethyl-1H-1,2,3-triazole] | 45 ± 23.4% |
| COc1ccc(-c2cn([C@@H]3C[C@H](C)CC[C@H]3C(C)C)nn2)cc1 [TZM-4, 1-((1R,2S,5R)-2-isopropyl-5-methylcyclohexyl)-4-(4-methoxyphenyl)-1H-1,2,3-triazole] | 85.1 ± 33% |
| CC1CC[C@@H](C(C)C)[C@H](n2cc(CCCCC#N)nn2)C1 (stereo in doubt) [TZM-22, 5-(1-((1R,2S,5S)-2-isopropyl-5-methylcyclohexyl)-1H-1,2,3-triazole-4-yl)pentanenitrile] | 57.3 ± 15.2% |
| CC1CC[C@@H](C(C)C)[C@H](n2cc(CCCCCCCCC(=O)O)nn2)C1 (stereo in doubt) [TZM-21, 9-(1-((1R,2S,5S)-2-isopropyl-5-methylcyclohexyl)-1H-1,2,3-triazole-4-yl)-nonanoic acid] | 54 ± 14.4% |
| CC(C)[C@@H]1CC[C@@H](C)C[C@H]1n1cc(C(=O)c2cccc(F)c2)nn1 [TZM-12, (3-fluorophenyl) (1-((1R,2S,5R)-2-isopropyl-5-methylcyclohexyl)-1H-1,2,3-triazole-4-yl)methanone] | 57.9 ± 8.57% |
| COc1ccccc1C(=O)c1cn([C@@H]2C[C@H](C)CC[C@H]2C(C)C)nn1 [TZM-15, (1-((1R,2S,5R)-2-isopropyl-5-methylcyclohexyl)-1H-1,2,3-triazole-4-yl) (2-methoxyphenyl)methanone] | 50.5 ± 4.83% |
| COc1cc(OC)cc(C(=O)c2cn([C@@H]3C[C@H](C)CC[C@H]3C(C)C)nn2)c1 [TZM-16, (3,5-dimethoxyphenyl) (1-((1R,2S,5R)-2-isopropyl-5-methylcyclohexyl)-1H-1,2,3-triazole-4-yl)methanone] | 44.5 ± 5.59% |
| COc1cccc(-c2cn([C@@H]3C[C@H](C)CC[C@H]3C(C)C)nn2)c1 [TZM-24, 1-((1R,2S,5R)-2-isopropyl-5-methylcyclohexyl)-4-(3-methoxyphenyl)-1H-1,2,3-triazole] | 37.8 ± 5.49% |
| CC(C)[C@@H]1CC[C@@H](C)C[C@H]1n1cc(C2(O)CCCCC2)nn1 [TZM-6, 1-(1-((1R,2S,5R)-2-isopropyl-5-methylcyclohexyl)-1H-1,2,3-triazole-4-yl)cyclohexan-1-ol] | 45.1 ± 16.9% |
| CC(C)[C@@H]1CC[C@@H](C)C[C@H]1n1cc(-c2cccc3ccccc23)nn1 [TZM-8, 1-((1R,2S,5R)-2-isopropyl-5-methylcyclohexyl)-4-(naphthalene-1-yl)-1H-1,2,3-triazole] | 56.5 ± 29.7% |
| CC(C)[C@@H]1CC[C@@H](C)C[C@H]1n1cc(CO)nn1 [TZM-1] | 45.5 ± 11.2% |
| CC(C)[C@@H]1CC[C@@H](C)C[C@H]1n1cc(-c2cccc(O)c2)nn1 [TZM-23, 3-[1-((1R,2S,5R)-2-isopropyl-5-methylcyclohexyl)-1H-1,2,3-triazole-4-yl]phenol] | 51.2 ± 16.1% |
| CC(C)[C@@H]1CC[C@@H](C)C[C@H]1n1cc(C(=O)c2ccc(Cl)cc2)nn1 [TZM-20, (4-chlorophenyl) (1-((1R,2S,5R)-2-isopropyl-5-methylcyclohexyl)-1H-1,2,3-triazole-4-yl)methanone] | 66.9 ± 17.5% |
| COc1ccc(C(O)c2cn([C@@H]3C[C@H](C)CC[C@H]3C(C)C)nn2)cc1OC (stereo partly drawn) [TZM-26, (3,4-dimethoxyphenyl) (1-((1R,2S,5R)-2-isopropyl-5-methylcyclohexyl)-1H-1,2,3-triazole-4-yl)methanol] | 50.9 ± 17.2% |
| CC(C)[C@@H]1CC[C@@H](C)C[C@H]1n1cc(-c2ccc(Oc3ccccc3)cc2)nn1 [TZM-2, 1-((1R,2S,5R)-2-isopropyl-5-methylcyclohexyl)-4-(4-phenoxyphenyl)-1H-1,2,3-triazole] | 55.6 ± 26.2% |
| COc1ccc(C(=O)c2cn([C@@H]3C[C@H](C)CC[C@H]3C(C)C)nn2)c(OC)c1 [TZM-14, (2,4-dimethoxyphenyl) (1-((1R,2S,5R)-2-isopropyl-5-methylcyclohexyl)-1H-1,2,3-triazole-4-yl)methanone] | 43.8 ± 4.22% |
| CC(C)[C@@H]1CC[C@@H](C)C[C@H]1n1cc(C(=O)c2ccc(Oc3ccccc3)cc2)nn1 [TZM-13, (1-((1R,2S,5R)-2-isopropyl-5-methylcyclohexyl)-1H-1,2,3-triazole-4-yl) (4-phenoxyphenyl)methanone] | 46.5 ± 6.57% |
| CC(C)[C@@H]1CC[C@@H](C)C[C@H]1n1cc(-c2ccc(-c3ccccc3)cc2)nn1 [TZM-5, 4-([1,1′-biphenyl]-4-yl)-1-((1R,2S,5R)-2-isopropyl-5-methylcyclohexyl)-1H-1,2,3-triazole] | 50.1 ± 8.25% |
| CC(C)[C@@H]1CC[C@@H](C)C[C@H]1n1cc(-c2ccccn2)nn1 [TZM-9, 2-(1-((1R,2S,5R)-2-isopropyl-5-methylcyclohexyl)-1H-1,2,3-triazole-4-yl)pyridine] | 59.1 ± 30.4% |
| CC(C)[C@@H]1CC[C@@H](C)C[C@H]1n1cc(C(=O)c2ccc(-c3ccccc3)cc2)nn1 [TZM-17, [1,1′-biphenyl]-4-yl(1-((1R,2S,5R)-2-isopropyl-5-methylcyclohexyl)-1H-1,2,3-triazole-4-yl)methanone] | 42 ± 4.53% |
| CC(C)[C@@H]1CC[C@@H](C)C[C@H]1n1cc(-c2ccccc2)nn1 [TZM-3, 1-((1R,2S,5R)-2-isopropyl-5-methylcyclohexyl)-4-phenyl-1H-1,2,3-triazole] | 51.6 ± 14% |
| COc1cccc(C(=O)c2cn([C@@H]3C[C@H](C)CC[C@H]3C(C)C)nn2)c1 [TZM-19, (1-((1R,2S,5R)-2-isopropyl-5-methylcyclohexyl)-1H-1,2,3-triazole-4-yl) (3-methoxyphenyl)methanone] | 40.8 ± 9.01% |
| COc1ccc(C(=O)c2cn([C@@H]3C[C@H](C)CC[C@H]3C(C)C)nn2)cc1OC [TZM-11, (3,4-dimethoxyphenyl) (1-((1R,2S,5R)-2-isopropyl-5-methylcyclohexyl)-1H-1,2,3-triazole-4-yl)methanone] | 53.5 ± 13.4% |

same assay, conditions: CHO cells stably expressing TRPM8; concentrations 0.1, 1, 10 and 100 μM; sigmoid fit

| SMILES | EC50 |
| --- | --- |
| CC(C)[C@@H]1CC[C@@H](C)C[C@H]1n1cc(CCc2ccccc2)nn1 [TZM-10, 1-((1R,2S,5R)-2-isopropyl-5-methylcyclohexyl)-4-phenethyl-1H-1,2,3-triazole] | 3.84 ± 2.36 µM |
| COc1ccc(-c2cn([C@@H]3C[C@H](C)CC[C@H]3C(C)C)nn2)cc1 [TZM-4, 1-((1R,2S,5R)-2-isopropyl-5-methylcyclohexyl)-4-(4-methoxyphenyl)-1H-1,2,3-triazole] | 3.47 ± 1.34 µM |
| CC(C)[C@@H]1CC[C@@H](C)C[C@H]1n1cc(-c2ccccn2)nn1 [TZM-9, 2-(1-((1R,2S,5R)-2-isopropyl-5-methylcyclohexyl)-1H-1,2,3-triazole-4-yl)pyridine] | 6.23 ± 3.18 µM |
| COc1ccc(C(=O)c2cn([C@@H]3C[C@H](C)CC[C@H]3C(C)C)nn2)cc1OC [TZM-11, (3,4-dimethoxyphenyl) (1-((1R,2S,5R)-2-isopropyl-5-methylcyclohexyl)-1H-1,2,3-triazole-4-yl)methanone] | 9.84 ± 3.29 µM |

system: guinea pig; assay: In vivo tear secretion measured using phenol red threads after ocular instillation; details: instilled ocularly at 200 μM, phenol red thread 30 seconds
Description: The in vivo activity of the selected TRPM8 activating compounds (TZM-7) has been assessed in an animal model following the protocol described in Acosta M C et al., Invest Ophthalmol Vis Sci 2014 (Corneal sensory nerve activity in an experimental model of UV keratitis. Acosta M et al., Invest Ophthalmol Vis Sci May 1; 55(6):3403-12). […] Tear secretion can be measured using phenol red threads (Zone-Quick, Menicon, Nagoya, Japan) that are applied to the nasal edge of the lower eyelid for 30 seconds (after that time, the distance of the red-dyed thread is measured in mm).

| SMILES | tear secretion |
| --- | --- |
| CC1CCC(C(C)C)C(O)C1 (stereo not shown) [Menthol, reference compound] | produces an increase in tear secretion |
